Results published in US10357460B2, “Particulate comprising a calcium-containing compound and a sugar alcohol” (Takeda Nycomed AS, priority 2004, dated 2019).

Tests used:
[1] = tested on: pre-menopausal women; details: 1200 mg of calcium supplements daily, three menstrual cycles; placebo 48%; cited from earlier work
[2] = Crushing strength versus tablet compression force, calcium carbonate/sugar alcohol tablets (Example 11); details: for tendency of capping: observed during the experiment
From the text: In all the below described experiments 1-24 the amount of calcium salt is 76.22% w/w of the final tablet mass, the amount of sugar alcohol is 23.78% w/w, with the exception of experiments 4 and 20 at which the 23.78% w/w of sugar alcohol is replaced with 14.63% w/w of sugar alcohol and 9.15% w/w of Precirol.
The calcium salt and the sugar alcohol are mixed in a total amount of 6 kg in a Fielder high shear mixer. The sugar alcohol is sieved through sieve size 300 μm prior to mixing. The mixing of 6 kg is done twice and the total yield of 12 kg is mixed in a planetary mixer. Thereafter, the mixtures are roller compacted (intra granular sugar alcohol) using the following values for GW, F, RS and screen size. (For the experiments 25-26 the sugar alcohol is admixed by hand after roller compaction has been carried out (extra granular sugar alcohol)).
The compactate is admixed with 0.34% w/w of magnesium stearate.
Compression is carried out on a Fette 1090 using a 18.9 mm×9.4 mm capsule shaped punch design and a theoretical tablet mass of 1683 mg. […] The crushing strength has been measured by use of a Schleuniger Autotest 4 and n=20.

[3] = Tablet hardness as a function of compression pressure (Schleuniger AT4); format: physicochemical
From the text: Sorbitol was lump breaked in a Cone Mill (Quadro U20) and afterwards premixed with Calcium Carbonate in a high-shear mixer (Diosna P250 at low impeller speed and no chopper) for 60 sec.
The premix was granulated on a roller compactor (Gerteis 3W-Polygran), and the compacted granules was then mixed with Povidone K30, Aspartame, D3 Vitamin and Flavour in a high-shear mixer (Diosna P250 at low impeller speed and no chopper) for 60 sec. Finally, lubrication with Magnesium Stearate was done a high-shear mixer (Diosna P250 at low impeller speed and no chopper) for 25 sec.
The roller compaction was based on a setup with knurled rollers and control. The key set up parameters are: Gap Width (GW), Force (F), Roller Speed (RS) and screen size.
Tablet weight was approximately 1,750 mg. All in-process weight and hardness data are obtained using a Schleuniger AT4.

[4] = Compactability of sugar alcohols compressed alone; format: physicochemical; details: tablets of sugar alcohol alone; FIG. 19
Description: Tablets comprising sorbitol 110 μm, sorbitol 38 μm, isomalt 27 μm, maltitol, mannitol or xylitol were compressed on an instrumented Fette Exacta 1/F single punch tablet press, only maximum compression force on the upper punch was recorded.
Before the compression of each tablet the punch tips and the die bore were lubricated with a 5% suspension of magnesium stearate in acetone. The acetone was allowed to evaporate before compression of the tablet.
The sugar alcohol was weighed, transferred to the die bore and then compressed, see Table 14. Immediately after ejection the tablet was tested for crushing strength.

[5] = tested on: treated patients; details: annual injections of 150.000-300.000 IU; cited from earlier work

Row | tendency of capping [2] | compactability (slope of compression force versus crushing strength) [4] | Compound | further results
1 |  |  | [Ca] [calcium] | women with PMS related symptoms [1]: 30%
2 | tendency of capping | very poor compactability | OC[C@@H](O)[C@@H](O[C@H]1O[C@H](CO)[C@@H](O)[C@H](O)[C@H]1O)[C@H](O)[C@@H](O)CO [maltitol, Maltitol] | binding properties (tablet hardness) ([3]; maltitol versus sorbitol 38 μm as binder, capsule shaped 9.4 mm*18.9 mm, FIG. 7): does not impart as good binding properties
3 | tendency of capping | very poor compactability | OC[C@@H](O)[C@@H](O)[C@H](O)[C@H](O)CO [mannitol, Mannitol] | 
4 |  | best compactability | OC[C@@H](O)[C@@H](O)[C@H](O)[C@@H](O)CO [sorbitol, Sorbitol] | tablet hardness ([3]; decreasing size of sorbitol (110, 38, 11 μm), fixed compression force, 14 mm round tablets, FIG. 4): markedly increased tablet hardness; tablet hardness ([3]; presence of sorbitol compared to tablets consisting solely of calcium carbonate, FIG. 1): increased tablet hardness values
5 | tendency of capping | very poor compactability | OC[C@@H](O)[C@H](O)[C@@H](O)CO [xylitol, Xylitol] | 
6 |  |  | Glycerol distearat Type I EP [Precirol] | crushing strength ([2]; addition of Precirol to xylitol 34 μm, FIG. 11): increases the crushing strength
7 |  | Sorbitol is followed by isomalt | Isomalt | 
8 |  |  | vitamin D | overall fracture rate [5]: significant reduction; rate of hip fracture [5]: not in the rate of hip fracture
